We go through 24 compounds from patent US11613542B2, “Sulfonylureas and sulfonylthioureas as NLRP3 inhibitors” (Inflazome Limited, priority 2017, dated 2023).

As a reminder, the IC50 is the midpoint of a concentration-inhibition curve.

This test deals with NLRP3 (Homo sapiens, UniProt Q96P20). The experiment in a line: THP-1 cells pyroptosis assay. Type of test: cell-based. Details: Seed THP-1 cells (25,000 cells/well) containing 1.0 μg/ml LPS; host or cells: THP-1 cells, LPS-primed, nigericin-stimulated. The following applies: THP-1 cells, 1.0 μg/ml LPS, compound 3 hrs, nigericin 5 μM 1 hr, resazurin readout; read-out: THP IC50. From the text:
NLRP and Pyroptosis It is well established that the activation of NLRP3 leads to cell pyroptosis and this feature plays an important part in the manifestation of clinical disease (Yan-gang Liu et al., Cell Death &Disease, 2017, 8(2), e2579; Alexander Wree et al., Hepatology, 2014, 59(3), 898-910; Alex Baldwin et al., Journal of Medicinal Chemistry, 2016, 59(5), 1691-171; Ema Ozaki et al., Journal of Inflammation Research, 2015, 8, 15-27; Zhen Xie & Gang Zhao, Neuroimmunology Neuroinflammation, 2014, 1(2), 60-65; Mattia Cocco et al., Journal of Medicinal Chemistry, 2014, 57(24), 10366-10382; T. Satoh et al., Cell Death &Disease, 2013, 4, e644). Therefore, it is anticipated that inhibitors of NLRP3 will block pyroptosis, as well as the release of pro-inflammatory cytokines (e.g. […]) from the cell. THP-1 Cells: Culture and Preparation THP-1 cells (ATCC #TIB-202) were grown in RPMI containing L-glutamine (Gibco #11835) supplemented with imM sodium pyruvate (Sigma #S8636) and penicillin (100 units/ml)/streptomycin (0.1 mg/ml) (Sigma #P4333) in 10% Fetal Bovine Serum (FBS) (Sigma #Fo804). The cells were routinely passaged and grown to confluency (˜10^6 cells/ml). On the day of the experiment, THP-1 cells were harvested and resuspended into RPMI medium (without FBS). The cells were then counted and viability (>90%) checked by Trypan blue (Sigma #T8154). Appropriate dilutions were made to give a concentration of 625,000 cells/ml. To this diluted cell solution was added LPS (Sigma #L4524) to give a […] Final Assay Concentration (FAC). 40 μl of the final preparation was aliquoted into each well of a 96-well plate. The plate thus prepared was used for compound screening. THP-1 Cells Pyroptosis Assay The following method step-by-step assay was followed for compound screening. • 1. Seed THP-1 cells (25,000 cells/well) containing 1.0 μg/ml LPS in 40 μl of RPMI medium (without FBS) in 96-well, black walled, clear bottom cell culture plates coated with poly-D-lysine (VWR #734-0317) • 2. Add […] compound (8 points half-log dilution, with 10 μM top dose) or vehicle (DMSO 0.1% FAC) to the appropriate wells • 3. […] Add 5 μl nigericin (Sigma #N7143) (FAC 5 μM) to all wells • 5. […] At the end of the incubation period, spin plates at 300 xg for 3 mins and remove supernatant • 7. Then add 50 μl of resazurin (Sigma #R7017) (FAC 100μ M resazurin in RPMI medium without FBS) and incubate plates for a further 1-2 hrs at 37° C. and 5% CO2 • 8. Plates were read in an Envision reader at Ex 560 nm and Em 590 nm • 9. IC50 data is fitted to a non-linear regression equation (log inhibitor vs response-variable slope 4-parameters) [table]

Where a name gives a salt, the structure may show the parent alone.

Chain of NLRP3 (Q96P20 whole entry): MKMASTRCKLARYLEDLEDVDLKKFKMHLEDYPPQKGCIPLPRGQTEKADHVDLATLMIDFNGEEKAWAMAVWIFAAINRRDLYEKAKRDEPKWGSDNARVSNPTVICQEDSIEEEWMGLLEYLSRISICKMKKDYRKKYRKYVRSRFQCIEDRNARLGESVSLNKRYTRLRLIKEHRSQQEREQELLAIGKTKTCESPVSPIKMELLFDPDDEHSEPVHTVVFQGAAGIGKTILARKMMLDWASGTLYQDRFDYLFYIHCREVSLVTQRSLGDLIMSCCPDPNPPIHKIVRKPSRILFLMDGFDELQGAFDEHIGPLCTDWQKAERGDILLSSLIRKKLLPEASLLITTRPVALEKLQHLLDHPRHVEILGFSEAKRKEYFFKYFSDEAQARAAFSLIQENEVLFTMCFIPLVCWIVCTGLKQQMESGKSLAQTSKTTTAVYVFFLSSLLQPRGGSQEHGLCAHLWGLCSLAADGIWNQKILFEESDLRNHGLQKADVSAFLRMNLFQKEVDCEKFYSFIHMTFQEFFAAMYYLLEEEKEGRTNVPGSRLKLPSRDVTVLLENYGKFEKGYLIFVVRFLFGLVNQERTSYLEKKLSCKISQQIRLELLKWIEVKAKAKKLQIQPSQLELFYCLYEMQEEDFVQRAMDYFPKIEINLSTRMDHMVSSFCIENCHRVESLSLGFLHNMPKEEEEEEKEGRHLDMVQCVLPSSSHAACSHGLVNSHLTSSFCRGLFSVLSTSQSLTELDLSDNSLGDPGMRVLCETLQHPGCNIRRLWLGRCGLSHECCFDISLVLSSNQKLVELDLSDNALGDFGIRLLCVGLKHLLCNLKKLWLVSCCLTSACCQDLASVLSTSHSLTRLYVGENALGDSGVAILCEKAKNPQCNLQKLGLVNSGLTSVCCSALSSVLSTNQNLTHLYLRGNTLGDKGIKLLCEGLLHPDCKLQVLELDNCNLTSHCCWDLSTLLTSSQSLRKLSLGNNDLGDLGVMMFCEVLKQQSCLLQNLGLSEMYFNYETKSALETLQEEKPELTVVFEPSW

Turning to `COCCNC(=O)c1cc(S(=O)(=O)NC(=O)Nc2c3c(cc4c2CCC4)CCC3)nn1C` [Example 175, 3-(N-((1,2,3,5,6,7-Hexahydro-s-indacen-4-yl)carbamoyl)sulfamoyl)-N-(2-methoxyethyl)-1-methyl-1H-pyrazole-5-carboxamide, partial ammonium salt], the IC50 was less than 10 µM.

On to `CC(C)c1cc(F)cc(C(C)C)c1NC(=O)NS(=O)(=O)c1ccn(CCN(C)C)n1` [Example 16, 1-(2-(Dimethylamino)ethyl)-N-((4-fluoro-2,6-diisopropyl-phenyl)carbamoyl)-1H-pyrazole-3-sulfonamide], for which the IC50 is less than 10 µM. For the compound `CN(C)CCCn1ccc(S(=O)(=O)NC(=O)Nc2c3c(cc4c2CCC4)CCC3)n1` [Example 32, 1-(3-(Dimethylamino)propyl)-N-((1,2,3,5,6,7-hexahydro-s-indacen-4-yl)carbamoyl)-1H-pyrazole-3-sulfonamide], the half-maximal inhibitory concentration (IC50) was less than 2.56 µM. With `CC(C)c1cc(F)cc(C(C)C)c1NC(=O)NS(=O)(=O)c1ccn(C(C)(C)CN(C)C)n1` [Example 201, 1-(1-(Dimethylamino)-2-methylpropan-2-yl)-N-((4-fluoro-2,6-diisopropylphenyl)carbamoyl)-1H-pyrazole-3-sulfonamide], the half-inhibitory concentration (IC50) was less than 2.56 µM. With `CC(C)c1cc(F)cc(C(C)C)c1NC(=O)NS(=O)(=O)c1cc(C(=O)N2CCC2)n(C(C)C)n1` [Example 130, 5-(azetidine-1-carbonyl)-N-((4-fluoro-2,6-diisopropylphenyl)carbamoyl)-1-isopropyl-1H-pyrazole-3-sulfonamide], the 50% inhibitory concentration (IC50) is less than 0.64 µM. Turning to `O=C(Nc1c2c(cc3c1CCC3)CCC2)NS(=O)(=O)c1ccn(-c2cccnc2)n1` [Example 121, N-((1,2,3,5,6,7-Hexahydro-s-indacen-4-yl)carbamoyl)-1-(pyridin-3-yl)-1H-pyrazole-3-sulfonamide], the IC50 was less than 2.56 µM.

On to `CN1CCC(n2ccc(S(=O)(=O)NC(=O)Nc3c4c(cc5c3CCC5)CCC4)n2)CC1` [Example 31, N-((1,2,3,5,6,7-Hexahydro-s-indacen-4-yl)carbamoyl)-1-(1-methylpiperidin-4-yl)-1H-pyrazole-3-sulfonamide], for which the IC50 was less than 2.56 µM. `CC(c1cc(S(=O)(=O)NC(=O)Nc2c3c(cc4c2CCC4)CCC3)nn1C)N1CCC1` (single isomer, unassigned) [Example 47, 5-(1-(Azetidin-1-yl)ethyl)-N-((1,2,3,5,6,7-hexahydro-s-indacen-4-yl)carbamoyl)-1-methyl-1H-pyrazole-3-sulfonamide, sodium salt]: the IC50 is less than 0.16 µM. For the compound `CC(C)c1ccc(-c2cncnc2)cc1NC(=O)NS(=O)(=O)c1cc(C(=O)N(C)C)n(C)n1` [Example 134, 3-(N-((2-Isopropyl-5-(pyrimidin-5-yl)phenyl)carbamoyl)sulfamoyl)-N,N,1-trimethyl-1H-pyrazole-5-carboxamide, sodium salt], the IC50 is less than 2.56 µM. `CC(c1cc(S(=O)(=O)NC(=O)Nc2c3c(cc4c2CCC4)CCC3)nn1C)N1CCC1` (single isomer, unassigned) [Example 46, 5-(1-(Azetidin-1-yl)ethyl)-N-((1,2,3,5,6,7-hexahydro-s-indacen-4-yl)carbamoyl)-1-methyl-1H-pyrazole-3-sulfonamide, sodium salt]: the 50% inhibitory concentration (IC50) is less than 0.16 µM.

With `CCN(CC)C(=O)c1cc(S(=O)(=O)NC(=O)Nc2c(C(C)C)cc(F)cc2C(C)C)nn1C` [Example 148, N,N-Diethyl-3-(N-((4-fluoro-2,6-diisopropylphenyl)carbamoyl)sulfamoyl)-1-methyl-1H-pyrazole-5-carboxamide, sodium salt], the half-inhibitory concentration (IC50) is less than 0.64 µM. As to `O=C(Nc1c2c(cc3c1CCC3)CCC2)NS(=O)(=O)c1ccn(-c2nccs2)n1` [Example 120, N-((1,2,3,5,6,7-Hexahydro-s-indacen-4-yl)carbamoyl)-1-(thiazol-2-yl)-1H-pyrazole-3-sulfonamide, sodium salt], the IC50 is less than 2.56 µM. `O=C(Nc1c2c(cc3c1CCC3)CCC2)NS(=O)(=O)c1ccn(-c2ccccn2)n1` [Example 119, N-((1,2,3,5,6,7-Hexahydro-s-indacen-4-yl)carbamoyl)-1-(pyridin-2-yl)-1H-pyrazole-3-sulfonamide, sodium salt]: the IC50 is less than 2.56 µM. As to `CC(C)c1cc(Cl)cc(C(C)C)c1NC(=O)NS(=O)(=O)c1cc(CN2CCOCC2)n(C)n1` [Example 127, N-((4-Chloro-2,6-diisopropylphenyl)carbamoyl)-1-methyl-5-(morpholinomethyl)-1H-pyrazole-3-sulfonamide, sodium salt], the IC50 was less than 2.56 µM. In the case of `C[C@@H](CN(C)C)n1ccc(S(=O)(=O)NC(=O)Nc2c3c(cc4c2CCC4)CCC3)n1` [Example 203, (S)-1-(1-(Dimethylamino)propan-2-yl)-N-((1,2,3,5,6,7-hexahydro-s-indacen-4-yl)carbamoyl)-1H-pyrazole-3-sulfonamide] it was less than 0.64 µM; in that of `CC(C)c1cccc(C(C)C)c1NC(=O)NS(=O)(=O)c1cc(C(=O)N(C)CCO)n(C)n1` [Example 173, 3-(N-((2,6-Diisopropylphenyl)carbamoyl)sulfamoyl)-N-(2-hydroxyethyl)-N,1-dimethyl-1H-pyrazole-5-carboxamide], less than 2.56 µM; in that of `CC(C)c1cc(Cl)cc(C(C)C)c1NC(=O)NS(=O)(=O)c1ccn(C(C)(C)CN(C)C)n1` [Example 200, N-((4-Chloro-2,6-diisopropylphenyl)carbamoyl)-1-(1-(dimethylamino)-2-methylpropan-2-yl)-1H-pyrazole-3-sulfonamide], less than 2.56 µM. As to `CC(C)c1ccc(-c2cnn(C)c2)cc1NC(=O)NS(=O)(=O)c1cc(C(=O)N(C)C)n(C)n1` [Example 136, 3-(N-((2-Isopropyl-5-(1-methyl-1H-pyrazol-4-yl)phenyl)carbamoyl)sulfamoyl)-N,N,1-trimethyl-1H-pyrazole-5-carboxamide, sodium salt], the IC50 is less than 2.56 µM. As for `CC(C)NC(=O)c1cc(S(=O)(=O)NC(=O)Nc2c(C(C)C)cccc2C(C)C)nn1C` [Example 138, 3-(N-((2,6-Diisopropylphenyl)carbamoyl)sulfamoyl)-N-isopropyl-1-methyl-1H-pyrazole-5-carboxamide], the IC50 was less than 10 µM. In the case of `O=C(Nc1c2c(cc3c1CCC3)CCC2)NS(=O)(=O)c1ccn(Cc2ncccn2)n1` [Example 22, N-((1,2,3,5,6,7-Hexahydro-s-indacen-4-yl)carbamoyl)-1-(pyrimidin-2-ylmethyl)-1H-pyrazole-3-sulfonamide] it was less than 2.56 µM. In the case of `CC(C)NC(=O)c1cc(S(=O)(=O)NC(=O)Nc2c3c(cc4c2CCC4)CCC3)nn1C` [Example 146, 3-(N-((1,2,3,5,6,7-Hexahydro-s-indacen-4-yl)carbamoyl)sulfamoyl)-N-isopropyl-1-methyl-1H-pyrazole-5-carboxamide] it was less than 10 µM; in that of `CNC(=O)c1cc(S(=O)(=O)NC(=O)Nc2c3c(cc4c2CCC4)CCC3)nn1C` [Example 166, 3-(N-((1,2,3,5,6,7-Hexahydro-s-indacen-4-yl)carbamoyl)sulfamoyl)-N,1-dimethyl-1H-pyrazole-5-carboxamide], less than 2.56 µM; in that of `CC(=O)N1CC(n2ccc(S(=O)(=O)NC(=O)Nc3c4c(cc5c3CCC5)CCC4)n2)C1` [Example 4, 1-(1-Acetylazetidin-3-yl)-N-((1,2,3,5,6,7-hexahydro-s-indacen-4-yl)carbamoyl)-1H-pyrazole-3-sulfonamide], less than 2.56 µM. For the compound `CCN(CC)C(=O)c1cc(S(=O)(=O)NC(=O)Nc2c(C(C)C)cccc2C(C)C)nn1C` [Example 157, 3-(N-((2,6-Diisopropylphenyl)carbamoyl)sulfamoyl)-N,N-diethyl-1-methyl-1H-pyrazole-5-carboxamide], the half-maximal inhibitory concentration (IC50) was less than 2.56 µM.
